How the values were obtained:
[1] = biological target: T1, PKR WT (Homo sapiens, UniProt P30613); experiment: PKR WT cell based AC50 assay; conditions: wild type PKR
[2] = biological target: T1, PKR WT; experiment: PKR WT enzymatic AC50 assay; format: biochemical; conditions: wild type PKR
In short: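 Steps: compound added to wells, then reaction mix lacking ADP; 60 min room-temperature hold; ADP (0.22-1.65 mM) added to start; A340 monitored at room temperature via PEP/LDH/NADH coupling. Top final compound concentration 100 μM, 3-fold dilutions over 11 points.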

[3] = biological target: PKR R510Q (Homo sapiens, UniProt P30613, R510Q); experiment: PKR Mutant Assay, AC50 against PKR R510Q; format: biochemical; conditions: mutant PKR R510Q enzyme
In short: (§1)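 Human PKR (WT or mutant, 80-400 ng/well) in 50 mM Tris pH 7.5, 100 mM KCl, 5 mM MgCl2, 1 mM DTT, 0.03% BSA with PEP 0.1-0.5 mM, NADH 180 uM and LDH, preincubated 60 min at room temperature with compound (11-point 3-fold series from 100 μM final, 1% DMSO). ADP 0.22-1.65 mM started reaction; A340 followed.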

[4] = biological target: PKR R532W (Homo sapiens, UniProt P30613, R532W); experiment: PKR Mutant Assay, AC50 against PKR R532W; format: biochemical; conditions: mutant PKR R532W enzyme
In short: as §1

Chain of PKR R510Q (P30613 whole entry R510Q): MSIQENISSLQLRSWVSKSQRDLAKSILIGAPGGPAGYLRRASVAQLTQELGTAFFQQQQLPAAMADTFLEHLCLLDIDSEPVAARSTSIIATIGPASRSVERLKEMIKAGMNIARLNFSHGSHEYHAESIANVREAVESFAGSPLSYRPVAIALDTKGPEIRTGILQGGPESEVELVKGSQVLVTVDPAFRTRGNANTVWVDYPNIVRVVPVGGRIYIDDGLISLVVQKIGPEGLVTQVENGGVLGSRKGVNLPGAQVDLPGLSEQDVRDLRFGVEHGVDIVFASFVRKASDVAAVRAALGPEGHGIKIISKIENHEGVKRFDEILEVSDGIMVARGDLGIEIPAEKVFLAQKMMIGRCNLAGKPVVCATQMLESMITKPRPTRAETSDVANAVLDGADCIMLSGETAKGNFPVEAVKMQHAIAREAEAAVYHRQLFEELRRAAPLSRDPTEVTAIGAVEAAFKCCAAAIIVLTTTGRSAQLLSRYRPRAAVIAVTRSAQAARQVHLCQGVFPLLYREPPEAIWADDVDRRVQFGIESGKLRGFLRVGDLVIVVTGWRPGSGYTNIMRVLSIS
T1 sequence (P30613 whole entry): as the sequence (P30613 whole entry R510Q) above, with Q510R counted along it
Chain of PKR R532W (P30613 whole entry R532W): as the sequence (P30613 whole entry R510Q) above, with Q510R, R532W counted along it

| AC50 [1] | AC50 [2] | AC50 [3] | AC50 [4] | Structure (SMILES) |
| --- | --- | --- | --- | --- |
| 101 to 1000 nM | < 100 nM | 101 to 1000 nM | < 100 nM | Cc1nc(C2(O)CCN(C(=O)c3ccc(NS(=O)(=O)c4cccc5cccnc45)cc3)CC2)ccc1F [Compound 171, N-(4-(4-(5-fluoro-6-methylpyridin-2-yl)-4-hydroxypiperidine-1-carbonyl)phenyl)quinoline-8-sulfonamide] |
| < 100 nM | < 100 nM | < 100 nM | < 100 nM | CC1(CC2(O)CCN(C(=O)c3ccc(NS(=O)(=O)c4cccc5cccnc45)cc3)CC2)CC1 [Compound 121, N-(4-(4-hydroxy-4-((1-methylcyclopropyl)methyl)piperidine-1-carbonyl)phenyl)quinoline-8-sulfonamide] |
| < 100 nM | 101 to 1000 nM | 1010 to 10000 nM | < 100 nM | O=C(c1ccc(NS(=O)(=O)c2cccc3cccnc23)cc1)N1CCC(O)(c2ccccc2O)CC1 [Compound 228, N-[4-[4-hydroxy-4-(2-hydroxyphenyl)piperidine-1-carbonyl]phenyl]quinoline-8-sulfonamide] |
| < 100 nM | < 100 nM | < 100 nM | < 100 nM | CC(CC1(O)CCN(C(=O)c2ccc(NS(=O)(=O)c3cccc4sc(N)nc34)cc2)CC1)C(F)(F)F (centres unmarked) [Compound 429] |
| < 100 nM | < 100 nM | 101 to 1000 nM | < 100 nM | N#Cc1cc(NS(=O)(=O)c2cccc3cccnc23)ccc1C(=O)N1CCC(O)(c2ccccc2Cl)CC1 [Compound 209] |
| < 100 nM | 101 to 1000 nM | 101 to 1000 nM | < 100 nM | CC(C)(F)CC1(O)CCN(C(=O)c2ccc(NS(=O)(=O)c3cccc4scnc34)cc2)CC1 [Compound 403, N-(4-(4-(2-fluoro-2-methylpropyl)-4-hydroxypiperidine-1-carbonyl)phenyl)benzo[d]thiazole-4-sulfonamide] |
| < 100 nM | < 100 nM | 1010 to 10000 nM | < 100 nM | CS(=O)(=O)c1ccccc1C1(O)CCN(C(=O)c2ccc(NS(=O)(=O)c3cccc4cccnc34)cc2)CC1 [Compound 192, N-[4-[4-hydroxy-4-(2-methylsulfonylphenyl)piperidine-1-carbonyl]phenyl]quinoline-8-sulfonamide] |
| 101 to 1000 nM | < 100 nM | 101 to 1000 nM | < 100 nM | Nc1nc2c(S(=O)(=O)Nc3ccc(C(=O)N4CCC(O)(CCC(F)(F)F)CC4)cc3)cccc2s1 [Compound 430] |
| < 100 nM | < 100 nM | < 100 nM | < 100 nM | Cc1cc(F)ccc1C1(O)CCN(C(=O)c2ccc(NS(=O)(=O)c3cccc4cccnc34)cc2)CC1 [Compound 138, N-(4-(4-(4-fluoro-2-methylphenyl)-4-hydroxypiperidine-1-carbonyl)phenyl)quinoline-8-sulfonamide] |
| < 100 nM | < 100 nM | < 100 nM | < 100 nM | Cc1cc(C(=O)N2CCC(O)(c3ccccc3Cl)CC2)ccc1NS(=O)(=O)c1cccc2nccnc12 [Compound 119, N-(4-(4-(2-chlorophenyl)-4-hydroxypiperidine-1-carbonyl)-2-methylphenyl)quinoxaline-5-sulfonamide] |
| < 100 nM | < 100 nM | < 100 nM | < 100 nM | Nc1nc2c(S(=O)(=O)Nc3ccc(C(=O)N4CCC(O)(c5cccc(F)c5F)CC4)cc3)cccc2s1 [Compound 422] |
| 101 to 1000 nM | < 100 nM | 101 to 1000 nM | < 100 nM | O=C(c1ccc(NS(=O)(=O)c2cccc3cccnc23)c2ccccc12)N1CCC(O)(c2ccccc2Cl)CC1 [Compound 226, N-(4-(4-(2-chlorophenyl)-4-hydroxypiperidine-1-carbonyl)naphthalen-1-yl)quinoline-8-sulfonamide] |
| 1010 to 10000 nM | 101 to 1000 nM | 1010 to 10000 nM | 101 to 1000 nM | O=C(c1ccc(NS(=O)(=O)c2cccc3cccnc23)cc1)N1CCC(O)(C2CC2)CC1 [Compound 260, N-(4-(4-cyclopropyl-4-hydroxypiperidine-1-carbonyl)phenyl)quinoline-8-sulfonamide] |
| < 100 nM | < 100 nM | 101 to 1000 nM | < 100 nM | Cc1ncccc1C1(O)CCN(C(=O)c2ccc(NS(=O)(=O)c3cccc4cccnc34)cc2)CC1 [Compound 147, N-(4-(4-hydroxy-4-(2-methylpyridin-3-yl)piperidine-1-carbonyl)phenyl)quinoline-8-sulfonamide] |
| 101 to 1000 nM | 101 to 1000 nM | 101 to 1000 nM | < 100 nM | Cn1cc(CC2(O)CCN(C(=O)c3ccc(NS(=O)(=O)c4cccc5scnc45)cc3)CC2)cn1 [Compound 434] |
| < 100 nM | < 100 nM | < 100 nM | < 100 nM | O=C(c1ccc(NS(=O)(=O)c2cccc3cccnc23)cc1)N1CCC(O)(CC2CC2)CC1 [Compound 144, N-(4-(4-(cyclopropylmethyl)-4-hydroxypiperidine-1-carbonyl)phenyl)quinoline-8-sulfonamide] |
| 101 to 1000 nM | < 100 nM | 101 to 1000 nM | < 100 nM | O=C(c1ccc(NS(=O)(=O)c2cccc3scnc23)cc1)N1CCC(O)(CC2CC2(F)F)CC1 (centres unmarked) [Compound 432] |
| < 100 nM | < 100 nM | 101 to 1000 nM | < 100 nM | O=C(c1ccc(NS(=O)(=O)c2cccc3cccnc23)cc1F)N1CCC(O)(c2ccccc2Cl)CC1 [Compound 193, N-(4-(4-(2-chlorophenyl)-4-hydroxypiperidine-1-carbonyl)-3-fluorophenyl)quinoline-8-sulfonamide] |
| 101 to 1000 nM | < 100 nM | 101 to 1000 nM | < 100 nM | O=C(c1ccc(NS(=O)(=O)c2cccc3ccccc23)cc1)N1CCC(O)(c2ccccc2Cl)CC1 [Compound 197, N-(4-(4-(2-chlorophenyl)-4-hydroxypiperidine-1-carbonyl)phenyl)naphthalene-1-sulfonamide] |
| < 100 nM | < 100 nM | 101 to 1000 nM | < 100 nM | O=C(c1ccc(NS(=O)(=O)c2cccc3cccnc23)cc1)N1CCC(O)(c2cc(F)ccc2Cl)CC1 [Compound 166] |
| < 100 nM | < 100 nM | < 100 nM | < 100 nM | O=C(c1ccc(NS(=O)(=O)c2cccc3cccnc23)cc1)N1CCC(O)(c2ccccc2C(F)(F)F)CC1 [Compound 126, N-(4-(4-hydroxy-4-(2-(trifluoromethyl)phenyl)piperidine-1-carbonyl)phenyl)quinoline-8-sulfonamide] |
| < 100 nM | < 100 nM | < 100 nM | < 100 nM | O=C(c1ccc(NS(=O)(=O)c2cccc3cccnc23)cc1)N1CCC(O)(c2ccccc2C(F)F)CC1 [Compound 113, N-[4-[4-[2-(difluoromethyl)phenyl]-4-hydroxy-piperidine-1-carbonyl]phenyl]quinoline-8-sulfonamide] |
| < 100 nM | < 100 nM | 101 to 1000 nM | < 100 nM | O=C(c1ccc(NS(=O)(=O)c2cccc3scnc23)cc1)N1CCC(O)(c2cccc(F)c2F)CC1 [Compound 178, N-(4-(4-(2,3-difluorophenyl)-4-hydroxypiperidine-1-carbonyl)phenyl)benzo[d]thiazole-4-sulfonamide] |
| < 100 nM | < 100 nM | 101 to 1000 nM | < 100 nM | O=C(c1ccc(NS(=O)(=O)c2cccc3scnc23)cc1)N1CCC(O)(CCCC(F)(F)F)CC1 [Compound 394, N-(4-(4-hydroxy-4-(4,4,4-trifluorobutyl)piperidine-1-carbonyl)phenyl)benzo[d]thiazole-4-sulfonamide] |
| 101 to 1000 nM | < 100 nM | 101 to 1000 nM | < 100 nM | O=C(c1ccc(NS(=O)(=O)c2cc(F)cc3cccnc23)cc1)N1CCC(O)(c2ccccc2Cl)CC1 [Compound 223, N-(4-(4-(2-chlorophenyl)-4-hydroxypiperidine-1-carbonyl)phenyl)-6-fluoroquinoline-8-sulfonamide] |
| < 100 nM | < 100 nM | 101 to 1000 nM | < 100 nM | O=C(c1ccc(NS(=O)(=O)c2cccc3cccnc23)cc1)N1CCC(O)(CCC(F)F)CC1 [Compound 204, N-(4-(4-(3,3-difluoropropyl)-4-hydroxypiperidine-1-carbonyl)phenyl)quinoline-8-sulfonamide] |
| < 100 nM | < 100 nM | < 100 nM | < 100 nM | O=C(c1ccc(NS(=O)(=O)c2cccc3cccnc23)cc1)N1CCC(O)(c2cccc(F)c2F)CC1 [Compound 100, N-[4-[4-(2,3-difluorophenyl)-4-hydroxy-piperidine-1-carbonyl]phenyl]quinoline-8-sulfonamide] |
| < 100 nM | < 100 nM | 101 to 1000 nM | < 100 nM | O=C(c1ccc(NS(=O)(=O)c2cccc3c(O)ncnc23)cc1)N1CCC(O)(c2cccc(F)c2F)CC1 [Compound 428] |
| < 100 nM | < 100 nM | 101 to 1000 nM | < 100 nM | O=C(c1ccc(NS(=O)(=O)c2cccc3cccnc23)cc1)N1CCC(O)(Cc2cccc(F)n2)CC1 [Compound 146, N-(4-(4-((6-fluoropyridin-2-yl)methyl)-4-hydroxypiperidine-1-carbonyl)phenyl)quinoline-8-sulfonamide] |

— US9108921B2, “Therapeutic compounds and compositions” (AGIOS PHARMACEUTICALS, INC, priority 2014, dated 2015)
